Source: patent US20260091082A1, “CYCLIC PEPTIDE DERIVATIVE COMPOSITION FOR TREATING OR PREVENTING EYE DISEASE” (DKS Co. Ltd., priority 2022, published 2026)
Values joined by “and” are separate entries in the source; they are usually repeats but may differ in a detail not shown here. Equal entries are not always repeated.

Tested on: anterior chamber aqueous humor pressure load rat model
Assay: Retinal thickness (IPL, INL, ONL) in retinal damage model induced by anterior chamber aqueous humor pressure load
Type: in vivo, Rat; Slc: SD
Settings: for Thickness of INL (μm) / Thickness of IPL (μm) / Thickness of ONL (μm): 14 days after model creation, mean ± S.E., 10 animals
Description: • Name: Compound 9 • Source: Synthesized in the above Examples • Used amount: 0.4 mL (50 mg/mL solution) • Storage conditions: Freezing, light shielding
Method for preparing test substance (1 mg/mL): A high concentration solution prepared at 50 mg/mL was diluted 50 times with a medium to prepare a 1 mg/mL administration solution.
• Name: MK-801 • Distributor: SIGMA-ALDRICH • Use amount: 0.0501 g • Storage condition: refrigerated (2° C. to 8° C.)
Method for preparing positive control substance (10 mg/mL): 0.0501 g was weighed out and made up to a total volume of 5 mL with a control substance (physiological saline).
• Species and strains: Rat; Slc: SD • Number of animals on arrival and sex: 50 males • Age in weeks at arrival: 6 weeks old • Body weight range at arrival: 147.2 to 170.0 g • Source: Japan SLC, Inc.
Grouping was performed two days before the first creation of the retinal damage model induced by an anterior chamber aqueous humor pressure load. Using the daily body weight as an index, stratified random allocation was performed using SAS (Ver. 9.3, SAS Institute Japan Ltd.) and EXSUS (Ver. 8.0, CAC Croit Corporation) so that an average value of the body weights of each group was approximately uniform.
• Administration route: Eyedrop administration, intravenous administration • Administration method (eyedrop): Eyedrop administration was performed on a treated eye (right eye) of a rat using a micropipette 4 times a day (at intervals of 1.5 hours or more). • Administration method (intravenous): The amount of administration solution, calculated from the body weight on the day of administration, was administered from the tail vein using a syringe and an injection needle about 30 minutes before ischemic load. • Time of administration: Administration was performed according to the following schedule.
1. 10 mg/kg xylazine hydrochloride was intramuscularly administered on the model creation day (day 0). A rat was placed in an anesthesia box and subjected to general anesthesia with isoflurane (5%, oxygen:nitrous oxide=1:3). When anesthesia was effective, the rat was taken out of the anesthesia box, an inhalation anesthetic mask was worn, and anesthesia was maintained with isoflurane (1% to 5%, oxygen nitrous oxide=1:3).
2. The body temperature was maintained at 37° C. with a warming mat, and a mydrin P ophthalmic solution was instilled in the right eye (treated eye) of the rat to dilate the pupil, then the cravit ophthalmic solution 1.5% (Santen Pharmaceutical Co., Ltd.) was instilled.
3. A bottle of an IV bag containing physiological saline was previously suspended so that a water surface was 155 cm (100 mmHg or more) higher than the eye of the rat. The IV bag was connected to a pediatric infusion set (Terumo Corporation), a 27 G injection needle thereof was inserted into and fixed to the anterior chamber while slightly dripping the liquid from a needle tip. The model was created in the light phase (6:00 to 18:00) in consideration of the diurnal variation of the intraocular pressure.
4. After the needle was inserted into the anterior chamber, pressure (100 mmHg or more) was loaded and maintained in the anterior chamber by associating the reflux system.
5. After an ischemic load for 45 minutes, the injection needle and the like were removed, the inhalation anesthetic mask was removed, and the rat was sufficiently woken up under a warming mat, and then returned to the cage.
6. For 2 days after surgery, 10 mg/kg xylazine hydrochloride was intramuscularly administered as an analgesic for the purpose of alleviating the pain after the treatment.
1. Fourteen days after model creation, general anesthesia was performed with isoflurane (5%, oxygen:nitrous oxide=1:3), euthanasia was then performed by exsanguination, a suture was placed as a marker at the 12 o'clock position of the ocular conjunctiva, and eyeball enucleation was performed.
2. […]

[1] = 300 μm from optic disk, 1 mg/mL eye drop 4 times/day for 13 days from the day after model creation (test group 3)
[2] = 300 μm from optic disk, 1 mg/mL eye drop 4 times/day for 13 days from the day after model creation (test group 3), listed as compound 9
[3] = 300 μm from optic disk, (pre) 1 mg/mL eye drop 4 times/day on the 2 days before model creation (test group 2)
[4] = 300 μm from optic disk, (pre) 1 mg/mL eye drop 4 times/day on the 2 days before model creation (test group 2), listed as compound 9
[5] = 600 μm from optic disk, 1 mg/mL eye drop 4 times/day for 13 days from the day after model creation (test group 3)
[6] = 600 μm from optic disk, 1 mg/mL eye drop 4 times/day for 13 days from the day after model creation (test group 3), listed as compound 9
[7] = 600 μm from optic disk, (pre) 1 mg/mL eye drop 4 times/day on the 2 days before model creation (test group 2)
[8] = 600 μm from optic disk, (pre) 1 mg/mL eye drop 4 times/day on the 2 days before model creation (test group 2), listed as compound 9
[9] = 900 μm from optic disk, 1 mg/mL eye drop 4 times/day for 13 days from the day after model creation (test group 3)
[10] = 900 μm from optic disk, 1 mg/mL eye drop 4 times/day for 13 days from the day after model creation (test group 3), listed as compound 9
[11] = 900 μm from optic disk, (pre) 1 mg/mL eye drop 4 times/day on the 2 days before model creation (test group 2)

With `CC[C@@]1(C)Oc2cc(ccc2O)C[C@H](NC)C(=O)N[C@@H](C(C)C)C(=O)N[C@@H]1C(=O)N[C@@H](CC(=O)O)C(=O)O` [Compound 9] the “Thickness of INL (μm), Distance from Optic Disk 300 μm” value (1 mg/mL eye drop (not pre), right eye, 300 μm from optic disk, individual measurements per animal) was 27.268 μm and 29.194 μm and 27.960 μm and 26.601 μm and 24.843 μm (2×) and 25.835 μm and 20.052 μm and 21.030 μm and 18.618 μm and 25.039 μm and 27.705 μm and 29.211 μm and 23.276 μm and 30.228 μm and 28.329 μm (2×) and 29.740 μm (2×) and 27.292 μm and 28.168 μm and 41.632 μm and 38.927 μm and 48.313 μm and 31.260 μm and 35.869 μm and 37.963 μm and 31.090 μm and 28.954 μm and 30.909 μm, the “Thickness of IPL (μm), Distance from Optic Disk 300 μm” value (1 mg/mL eye drop (not pre), right eye, 300 μm from optic disk, individual measurements per animal, listed as compond 9) was 32.198 μm and 30.002 μm and 34.224 μm and 39.119 μm and 37.558 μm and 34.827 μm and 27.585 μm and 28.700 μm and 33.412 μm and 37.176 μm (3×) and 37.457 μm and 36.016 μm and 35.842 μm and 37.411 μm and 38.117 μm and 35.930 μm and 36.185 μm and 37.237 μm and 38.550 μm and 39.901 μm and 45.876 μm and 47.765 μm and 46.968 μm and 35.532 μm and 36.791 μm and 36.389 μm and 42.704 μm and 39.019 μm and the “Thickness of INL (μm), Distance from Optic Disk 300 μm, Mean” value (1 mg/mL eye drop (not pre), right eye, 300 μm from optic disk, mean per animal) was 28.141 μm and 25.760 μm and 19.900 μm and 25.862 μm and 27.572 μm and 28.454 μm and 28.746 μm and 42.957 μm and 35.031 μm and 30.318 μm. For the same molecule, the “Thickness of IPL (μm), Distance from Optic Disk 300 μm, Mean” value (1 mg/mL eye drop (not pre), right eye, 300 μm from optic disk, mean per animal, listed as compond 9) was 32.141 μm and 37.168 μm and 29.899 μm and 36.883 μm and 36.810 μm and 36.744 μm and 38.563 μm and 46.870 μm and 36.237 μm and 39.633 μm, the “Thickness of INL (μm), Distance from Optic Disk 600 μm” value (1 mg/mL eye drop (not pre), right eye, 600 μm from optic disk, individual measurements per animal) was 24.738 μm and 26.582 μm and 31.689 μm and 28.581 μm and 25.207 μm and 26.625 μm and 29.576 μm and 28.954 μm and 37.237 μm and 34.673 μm and 26.256 μm and 29.926 μm and 35.484 μm and 34.715 μm and 36.694 μm and 38.253 μm and 32.381 μm and 33.458 μm and 33.871 μm and 36.611 μm and 27.419 μm and 34.733 μm and 25.544 μm and 26.908 μm and 37.411 μm and 29.937 μm and 35.493 μm and 34.034 μm and 32.419 μm and 29.046 μm and the “Thickness of IPL (μm), Distance from Optic Disk 600 μm” value (1 mg/mL eye drop (not pre), right eye, 600 μm from optic disk, individual measurements per animal, listed as compond 9) was 38.128 μm and 36.322 μm and 43.429 μm and 43.876 μm and 37.066 μm and 37.938 μm and 42.704 μm and 40.500 μm and 46.031 μm and 45.964 μm and 42.314 μm (2×) and 45.398 μm and 49.200 μm and 42.129 μm and 48.205 μm and 50.755 μm and 43.015 μm and 42.630 μm and 42.759 μm and 41.121 μm and 42.214 μm and 37.880 μm and 41.066 μm and 41.515 μm and 38.919 μm and 45.161 μm and 49.299 μm and 44.538 μm and 46.083 μm. For the same molecule, the “Thickness of INL (μm), Distance from Optic Disk 600 μm, Mean” value (1 mg/mL eye drop (not pre), right eye, 600 μm from optic disk, mean per animal) was 26.246 μm and 31.668 μm and 25.792 μm and 28.479 μm and 36.440 μm and 28.706 μm and 35.231 μm and 36.327 μm and 32.753 μm and 33.176 μm, the “Thickness of IPL (μm), Distance from Optic Disk 600 μm, Mean” value (1 mg/mL eye drop (not pre), right eye, 600 μm from optic disk, mean per animal, listed as compond 9) was 38.524 μm and 43.173 μm and 37.628 μm and 41.423 μm and 44.503 μm and 42.210 μm and 45.497 μm and 49.420 μm and 43.394 μm and 43.719 μm and the “Thickness of INL (μm), Distance from Optic Disk 900 μm” value (1 mg/mL eye drop (not pre), right eye, 900 μm from optic disk, individual measurements per animal) was 23.463 μm and 23.821 μm and 26.168 μm and 31.627 μm and 31.452 μm and 31.822 μm and 18.956 μm and 25.938 μm and 21.867 μm and 22.952 μm and 23.718 μm and 22.465 μm and 26.601 μm and 27.289 μm and 29.587 μm and 30.400 μm and 26.367 μm and 26.057 μm and 35.226 μm and 33.688 μm and 33.919 μm and 36.066 μm and 40.039 μm and 42.383 μm and 29.394 μm and 29.751 μm and 27.773 μm and 29.233 μm and 27.808 μm and 25.454 μm. The “Thickness of IPL (μm), Distance from Optic Disk 900 μm” value (1 mg/mL eye drop (not pre), right eye, 900 μm from optic disk, individual measurements per animal, listed as compond 9) was 39.528 μm and 37.965 μm and 40.039 μm and 50.240 μm and 47.772 μm and 44.149 μm and 38.417 μm and 36.462 μm and 38.383 μm and 39.277 μm and 38.777 μm and 38.865 μm and 45.233 μm and 47.955 μm and 43.645 μm and 43.616 μm and 43.735 μm and 42.098 μm and 53.201 μm and 48.131 μm and 47.334 μm and 50.136 μm and 51.594 μm and 51.265 μm and 43.640 μm and 42.918 μm and 42.582 μm and 46.425 μm and 48.902 μm and 47.239 μm, the “Thickness of INL (μm), Distance from Optic Disk 900 μm, Mean” value (1 mg/mL eye drop (not pre), right eye, 900 μm from optic disk, mean per animal) was 24.484 μm and 31.634 μm and 22.254 μm and 23.045 μm and 27.826 μm and 27.608 μm and 34.278 μm and 39.496 μm and 28.973 μm and 27.498 μm and the “Thickness of IPL (μm), Distance from Optic Disk 900 μm, Mean” value (1 mg/mL eye drop (not pre), right eye, 900 μm from optic disk, mean per animal, listed as compond 9) was 39.177 μm and 47.387 μm and 37.754 μm and 38.973 μm and 45.611 μm and 43.150 μm and 49.555 μm and 50.998 μm and 43.047 μm and 47.522 μm. The “Thickness of INL (μm)” value [1] was 29.27±1.94 μm, the “Thickness of IPL (μm)” value [1] was 37.09±1.42 μm and the “Thickness of ONL (μm)” value [1] was 42.79±2.60 μm. The “Thickness of INL (μm)” value [2] was 29.27 ± 1.94 μm, the “Thickness of ONL (μm)” value [2] was 42.79 ± 2.60 μm and the “Thickness of INL (μm)” value [3] was 28.93±1.27 μm. The “Thickness of IPL (μm)” value [3] was 31.31±0.93 μm, the “Thickness of ONL (μm)” value [3] was 40.06±1.61 μm and the “Thickness of INL (μm)” value [4] was 28.93 ± 1.27 μm. The “Thickness of ONL (μm)” value [4] was 40.06 ± 1.61 μm, the “Thickness of INL (μm)” value [5] was 31.48±1.26 μm and the “Thickness of IPL (μm)” value [5] was 42.95±1.07 μm. For the same molecule, the “Thickness of ONL (μm)” value [5] was 42.33±1.81 μm, the “Thickness of INL (μm)” value [6] was 31.48 ± 1.26 μm and the “Thickness of ONL (μm)” value [6] was 42.33 ± 1.81 μm. The “Thickness of INL (μm)” value [7] was 31.25±1.29 μm, the “Thickness of IPL (μm)” value [7] was 38.85±1.23 μm and the “Thickness of ONL (μm)” value [7] was 43.03±0.82 μm. For the same molecule, the “Thickness of INL (μm)” value [8] was 31.25 ± 1.29 μm, the “Thickness of ONL (μm)” value [8] was 43.03 ± 0.82 μm and the “Thickness of IPL (μm)” value [9] was 44.32±1.47 μm. The “Thickness of ONL (μm)” value [9] was 39.42±1.92 μm, the “Thickness of INL (μm)” value [10] was 28.71 ± 1.67 μm and the “Thickness of ONL (μm)” value [10] was 39.42 ± 1.92 μm. The “Thickness of INL (μm)” value [11] was 30.39±1.24 μm and the “Thickness of IPL (μm)” value [11] was 41.51±1.27 μm.
